Source: ChEMBL document CHEMBL1201862, “PubChem BioAssay data set” (2004)
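Five concentrations, 48 hours, 96-well plates. Abbreviation: GI50, concentration required for 50% inhibition of growth.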 Calls of active or inactive are those of the source. Cut-off read from the data, not from the text of the source: active = GI50 up to about 1.1 µM and inactive = higher.

Tests used:
Assay in all cases: NCI tumour cell line growth inhibition, 48 h
786-0 = test system: 786-0
A498 = test system: A498
A549 = test system: A549
ACHN = test system: ACHN
CAKI-1 = test system: CAKI-1
CCRF-CEM = test system: CCRF-CEM
COLO 205 = test system: COLO 205
DLD-1 = test system: DLD-1
DMS-114 = test system: DMS-114
DMS-273 = test system: DMS-273
EKVX = test system: EKVX
HCC 2998 = test system: HCC 2998
HCT-15 = test system: HCT-15
HL-60 = test system: HL-60
HOP-18 = test system: HOP-18
HOP-62 = test system: HOP-62
HOP-92 = test system: HOP-92
IGROV-1 = test system: IGROV-1
K562 = test system: K562
KM-20L2 = test system: KM-20L2
KM12 = test system: KM12
LOX IMVI = test system: LOX IMVI
M19-MEL = test system: M19-MEL
MOLT-4 = test system: MOLT-4
Malme-3M = test system: Malme-3M
NCI-H23 = test system: NCI-H23
NCI-H460 = test system: NCI-H460
NCI-H522 = test system: NCI-H522
OVCAR-3 = test system: OVCAR-3
OVCAR-5 = test system: OVCAR-5
OVCAR-8 = test system: OVCAR-8
RPMI-8226 = test system: RPMI-8226
RXF 393 = test system: RXF 393
RXF 631 = test system: RXF 631
SF-268 = test system: SF-268
SF-295 = test system: SF-295
SF-539 = test system: SF-539
SK-MEL-28 = test system: SK-MEL-28
SK-MEL-2 = test system: SK-MEL-2
SK-MEL-5 = test system: SK-MEL-5
SK-OV-3 = test system: SK-OV-3
SN12C = test system: SN12C
SNB-19 = test system: SNB-19
SNB-75 = test system: SNB-75
SNB-78 = test system: SNB-78
SW-620 = test system: SW-620
TK-10 = test system: TK-10
U-251 = test system: U-251
UACC-62 = test system: UACC-62
UO-31 = test system: UO-31
HCT-116 = test system: HCT-116
HT-29 = test system: HT-29
LXFL 529 = test system: LXFL 529
M14 = test system: M14
NCI-H226 = test system: NCI-H226
OVCAR-4 = test system: OVCAR-4
SR = test system: SR
UACC-257 = test system: UACC-257

## COc1ccc(/C=C/C(=O)c2sc(Nc3ccc([N+](=O)[O-])cc3)nc2C)cc1
786-0
  GI50: 48.8 µM (inactive)
A498
  GI50: 83.8 µM (inactive)
A549
  GI50: 33 µM (inactive)
ACHN
  GI50: 38.6 µM (inactive)
CAKI-1
  GI50: 40.2 µM (inactive)
CCRF-CEM
  GI50: 25.6 µM (inactive)
COLO 205
  GI50: 45.7 µM (inactive)
DLD-1
  GI50: 29.1 µM (inactive)
DMS-114
  GI50: 31.3 µM (inactive)
DMS-273
  GI50: 41.1 µM (inactive)
EKVX
  GI50: 43.9 µM (inactive)
HCC 2998
  GI50: 27.5 µM (inactive)
HCT-15
  GI50: 34.4 µM
HL-60
  GI50: 21.2 µM (inactive)
HOP-18
  GI50: 78.2 µM (inactive)
HOP-62
  GI50: 64.1 µM (inactive)
HOP-92
  GI50: 20.8 µM (inactive)
IGROV-1
  GI50: 66.5 µM (inactive)
K562
  GI50: 22.1 µM (inactive)
KM-20L2
  GI50: 48.6 µM (inactive)
KM12
  GI50: 27.4 µM (inactive)
LOX IMVI
  GI50: 31.6 µM (inactive)
M19-MEL
  GI50: 53.1 µM (inactive)
MOLT-4
  GI50: 17.7 µM (inactive)
Malme-3M
  GI50: 47 µM (inactive)
NCI-H23
  GI50: 26.5 µM (inactive)
NCI-H460
  GI50: 44.6 µM (inactive)
NCI-H522
  GI50: 18.2 µM (inactive)
OVCAR-3
  GI50: 26 µM (inactive)
OVCAR-5
  GI50: > 100 µM (inactive)
OVCAR-8
  GI50: 39.1 µM (inactive)
RPMI-8226
  GI50: 19.3 µM (inactive)
RXF 393
  GI50: 23.1 µM (inactive)
RXF 631
  GI50: 34.2 µM (inactive)
SF-268
  GI50: 34.8 µM (inactive)
SF-295
  GI50: 23.3 µM (inactive)
SF-539
  GI50: 59.7 µM (inactive)
SK-MEL-28
  GI50: 40.2 µM (inactive)
SK-MEL-2
  GI50: 17.5 µM (inactive)
SK-MEL-5
  GI50: 18.2 µM (inactive)
SK-OV-3
  GI50: > 100 µM (inactive)
SN12C
  GI50: 50.2 µM (inactive)
SNB-19
  GI50: 35.3 µM (inactive)
SNB-75
  GI50: 43.5 µM (inactive)
SNB-78
  GI50: 46.2 µM (inactive)
SW-620
  GI50: 42.3 µM (inactive)
TK-10
  GI50: 45.2 µM (inactive)
U-251
  GI50: 65.2 µM (inactive)
UACC-62
  GI50: 29.9 µM (inactive)
UO-31
  GI50: 25.4 µM (inactive)

## CC(c1ccc(Br)cc1)C(C(=O)O)C(=O)O (centres undefined)
786-0
  GI50: > 100 µM (inactive)
A549
  GI50: > 100 µM (inactive)
ACHN
  GI50: > 100 µM (inactive)
CAKI-1
  GI50: > 100 µM (inactive)
CCRF-CEM
  GI50: > 100 µM (inactive)
COLO 205
  GI50: > 100 µM (inactive)
DLD-1
  GI50: > 100 µM (inactive)
DMS-114
  GI50: > 100 µM (inactive)
DMS-273
  GI50: > 100 µM (inactive)
EKVX
  GI50: > 100 µM (inactive)
HCC 2998
  GI50: > 100 µM (inactive)
HCT-116
  GI50: > 100 µM (inactive)
HCT-15
  GI50: > 100 µM
HL-60
  GI50: > 100 µM (inactive)
HOP-18
  GI50: > 100 µM (inactive)
HOP-62
  GI50: > 100 µM (inactive)
HT-29
  GI50: > 100 µM (inactive)
IGROV-1
  GI50: > 100 µM (inactive)
K562
  GI50: > 100 µM (inactive)
KM-20L2
  GI50: > 100 µM (inactive)
KM12
  GI50: > 100 µM (inactive)
LOX IMVI
  GI50: > 100 µM (inactive)
LXFL 529
  GI50: > 100 µM (inactive)
M14
  GI50: > 100 µM (inactive)
M19-MEL
  GI50: > 100 µM (inactive)
MOLT-4
  GI50: > 100 µM (inactive)
Malme-3M
  GI50: > 100 µM (inactive)
NCI-H226
  GI50: > 100 µM (inactive)
NCI-H23
  GI50: > 100 µM (inactive)
NCI-H460
  GI50: > 100 µM (inactive)
NCI-H522
  GI50: > 100 µM (inactive)
OVCAR-3
  GI50: > 100 µM (inactive)
OVCAR-4
  GI50: > 100 µM (inactive)
OVCAR-5
  GI50: > 100 µM (inactive)
OVCAR-8
  GI50: > 100 µM (inactive)
RPMI-8226
  GI50: > 100 µM (inactive)
RXF 393
  GI50: > 100 µM (inactive)
SF-268
  GI50: > 100 µM (inactive)
SF-295
  GI50: > 100 µM (inactive)
SK-MEL-28
  GI50: > 100 µM (inactive)
SK-MEL-2
  GI50: > 100 µM (inactive)
SK-MEL-5
  GI50: > 100 µM (inactive)
SK-OV-3
  GI50: > 100 µM (inactive)
SN12C
  GI50: > 100 µM (inactive)
SNB-19
  GI50: > 100 µM (inactive)
SNB-75
  GI50: > 100 µM (inactive)
SNB-78
  GI50: > 100 µM (inactive)
SR
  GI50: > 100 µM (inactive)
SW-620
  GI50: > 100 µM (inactive)
TK-10
  GI50: > 100 µM (inactive)
U-251
  GI50: > 100 µM (inactive)
UACC-257
  GI50: > 100 µM (inactive)
UACC-62
  GI50: > 100 µM (inactive)
UO-31
  GI50: > 100 µM (inactive)
